This is an account of results in patent US20260242419A1, “A CYCLIC PEPTIDE FOR TRAPPING INTERLEUKIN-1 BETA” (Merck Sharp & Dohme LLC, priority 2023, published 2026).

pIC50: −log10 of the molar value. Non-standard residues stand in square brackets, D forms with d. Residues, ends and D or L forms follow the SMILES beside them. Phe(4-(5-CO2H-2-pyrimidyl)) = N[C@@H](Cc1ccc(-c2ncc(C(=O)O)cn2)cc1)C(=O)O; Phe(4-(4-Ac-piperazinyl)) = CC(=O)N1CCN(c2ccc(C[C@H](N)C(=O)O)cc2)CC1; Trp(4-Cl)(βS-Me) = C[C@@H](c1c[nH]c2cccc(Cl)c12)[C@H](N)C(=O)O; dPro(4R-(4-pyridylmethyl)) = O=C(O)[C@H]1C[C@@H](Cc2ccncc2)CN1; Trp(βS-Me,4-F) = C[C@@H](c1c[nH]c2cccc(F)c12)[C@H](N)C(=O)O; Bip(4'-COOH) = N[C@@H](Cc1ccc(-c2ccc(C(=O)O)cc2)cc1)C(=O)O; Ala(1-bicyclo(1.1.1)pentyl) = N[C@@H](CC12CC(C1)C2)C(=O)O; dPro(3S-(4-F-Bn)) = O=C(O)[C@@H]1NCC[C@@H]1Cc1ccc(F)cc1; Phe(2-Cl,4-COOH) = N[C@@H](Cc1ccc(C(=O)O)cc1Cl)C(=O)O; 1Nal(3S-Me) = C[C@@H](c1cccc2ccccc12)[C@H](N)C(=O)O; Ala(pyrimidin-5-yl) = N[C@@H](Cc1cncnc1)C(=O)O; Phe(4-COOH) = N[C@@H](Cc1ccc(C(=O)O)cc1)C(=O)O; Pro(cis-4-F) = O=C(O)[C@@H]1C[C@H](F)CN1; Ala(4-THP) = N[C@@H](CC1CCOCC1)C(=O)O; d(αMeD) = C[C@@](N)(CC(=O)O)C(=O)O; 4Pal = N[C@@H](Cc1ccncc1)C(=O)O; aThr = C[C@H](O)[C@H](N)C(=O)O; d(αMeS) = C[C@@](N)(CO)C(=O)O; Cba = N[C@@H](CC1CCC1)C(=O)O; Dab = NCC[C@H](N)C(=O)O; Aib = CC(C)(N)C(=O)O

The target of the assay is T1, IL-1β (Homo sapiens, UniProt P01584).
T1 construct: purchased BioLegend 579404
T1 sequence (P01584 117-269): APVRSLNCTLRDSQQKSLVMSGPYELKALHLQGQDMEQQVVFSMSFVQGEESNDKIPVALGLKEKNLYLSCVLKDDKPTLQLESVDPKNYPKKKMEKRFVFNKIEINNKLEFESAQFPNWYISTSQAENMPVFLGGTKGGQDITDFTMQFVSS
In words: IL-6 assay in MRC5 cells: inhibition of IL-1β induced IL-6 secretion (AlphaLISA). Format: cell-based. As to conditions: inhibition of IL-1β induced IL-6 secretion in MRC5 cells; read-out: MRC5 IC50. An outline of the steps:
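Compound was pre-incubated 1 h at ambient temperature with recombinant human IL-1β at 2λ EC80 before adding human lung fibroblast MRC5 cells (3000/well) in EMEM with 0.025% BSA. After overnight culture at 37 °C, 5% CO2, secreted IL-6 in conditioned medium was measured by AlphaLISA; IC50 from 4-parameter logistic fits.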
On the technique in general: Alpha assays give light when donor and acceptor beads are brought close together.
On to `C[C@@H](c1c[nH]c2cccc(F)c12)[C@@H]1NC(=O)[C@@H]2C[C@H](F)CN2C(=O)CNC(=O)[C@H](Cc2ccc(C(=O)O)cc2)NC(=O)[C@H](Cc2ccncc2)NC(=O)[C@H](Cc2ccc(-c3ccc(C(=O)O)cc3)cc2)NC(=O)[C@H]2[C@@H](Cc3ccc(F)cc3)CCN2C(=O)CNC(=O)[C@H](CCN)NC(=O)[C@H](CCC(N)=O)NC(=O)[C@H](Cc2cncnc2)NC(=O)C(C)(C)NC(=O)[C@H](Cc2c[nH]c3ccccc23)NC(=O)[C@H](CCC(=O)O)NC(=O)C(C)(C)NC1=O` [Example 346] (cyclo([Bip(4'-COOH)][4Pal][Phe(4-COOH)]G[Pro(cis-4-F)][Trp(βS-Me,4-F)][Aib]EW[Aib][Ala(pyrimidin-5-yl)]Q[Dab]G[dPro(3S-(4-F-Bn))])), for which the pIC50 is 11.00. As to `CC(C)C[C@@H]1NC(=O)[C@@](C)(CO)NC(=O)[C@H](Cc2c[nH]c3ccccc23)NC(=O)[C@H](CO)NC(=O)C(C)(C)NC(=O)[C@H]([C@@H](C)c2c[nH]c3cccc(F)c23)NC(=O)[C@@H]2C[C@H](F)CN2C(=O)CNC(=O)[C@H](Cc2ccc(C(=O)O)cc2)NC(=O)[C@H](Cc2ccncc2)NC(=O)[C@H](Cc2ccc(-c3ccc(C(=O)O)cc3)cc2)NC(=O)[C@H]2C[C@@H](Cc3ccncc3)CN2C(=O)CNC(=O)[C@H](CCN)NC(=O)[C@H](CCC(N)=O)NC1=O` [Example 347] (cyclo([Bip(4'-COOH)][4Pal][Phe(4-COOH)]G[Pro(cis-4-F)][Trp(βS-Me,4-F)][Aib]SW[d(αMeS)]LQ[Dab]G[dPro(4R-(4-pyridylmethyl))])), the pIC50 was 10.60.

As to `C[C@@H](c1c[nH]c2cccc(F)c12)[C@@H]1NC(=O)[C@@H]2C[C@H](F)CN2C(=O)CNC(=O)[C@H](Cc2ccc(C(=O)O)cc2)NC(=O)[C@H](CC23CC(C2)C3)NC(=O)[C@H](Cc2ccc(-c3ccc(C(=O)O)cc3)cc2)NC(=O)[C@H]2C[C@@H](Cc3ccncc3)CN2C(=O)CNC(=O)[C@H](CCN)NC(=O)[C@H](CCC(N)=O)NC(=O)[C@H](CC2CCC2)NC(=O)[C@@](C)(CC(=O)O)NC(=O)[C@H](Cc2c[nH]c3ccccc23)NC(=O)[C@H](CO)NC(=O)C(C)(C)NC1=O` [Example 348] (cyclo([Bip(4'-COOH)][Ala(1-bicyclo(1.1.1)pentyl)][Phe(4-COOH)]G[Pro(cis-4-F)][Trp(βS-Me,4-F)][Aib]SW[d(αMeD)][Cba]Q[Dab]G[dPro(4R-(4-pyridylmethyl))])), the pIC50 is 10.74.

Turning to `CC(C)C[C@@H]1NC(=O)[C@@](C)(CC(=O)O)NC(=O)[C@H](Cc2c[nH]c3ccccc23)NC(=O)[C@H](CO)NC(=O)C(C)(C)NC(=O)[C@H]([C@@H](C)c2c[nH]c3cccc(F)c23)NC(=O)[C@@H]2C[C@H](F)CN2C(=O)CNC(=O)[C@H](Cc2ccc(C(=O)O)cc2)NC(=O)[C@H](CC23CC(C2)C3)NC(=O)[C@H](Cc2ccc(-c3ccc(C(=O)O)cc3)cc2)NC(=O)[C@H]2C[C@@H](Cc3ccncc3)CN2C(=O)CNC(=O)[C@H](CCN)NC(=O)[C@H](CCC(N)=O)NC1=O` [Example 349] (cyclo([Bip(4'-COOH)][Ala(1-bicyclo(1.1.1)pentyl)][Phe(4-COOH)]G[Pro(cis-4-F)][Trp(βS-Me,4-F)][Aib]SW[d(αMeD)]LQ[Dab]G[dPro(4R-(4-pyridylmethyl))])), the pIC50 was 10.77.

For the compound `CC(=O)N1CCN(c2ccc(C[C@@H]3NC(=O)[C@H]4C[C@@H](Cc5ccncc5)CN4C(=O)CNC(=O)[C@H](CCN)NC(=O)[C@H](CCC(N)=O)NC(=O)[C@H](Cc4cncnc4)NC(=O)[C@@](C)(CO)NC(=O)[C@H](Cc4c[nH]c5ccccc45)NC(=O)[C@H](CO)NC(=O)C(C)(C)NC(=O)[C@H]([C@@H](C)c4c[nH]c5cccc(F)c45)NC(=O)[C@@H]4C[C@H](F)CN4C(=O)CNC(=O)[C@H](Cc4ccc(C(=O)O)cc4)NC(=O)[C@H](Cc4ccncc4)NC3=O)cc2)CC1` [Example 350] (cyclo([Phe(4-(4-Ac-piperazinyl))][4Pal][Phe(4-COOH)]G[Pro(cis-4-F)][Trp(βS-Me,4-F)][Aib]SW[d(αMeS)][Ala(pyrimidin-5-yl)]Q[Dab]G[dPro(4R-(4-pyridylmethyl))])), the pIC50 is 10.70. With `C[C@@H](c1c[nH]c2cccc(F)c12)[C@@H]1NC(=O)[C@@H]2C[C@H](F)CN2C(=O)CNC(=O)[C@H](Cc2ccc(C(=O)O)cc2)NC(=O)[C@H](Cc2ccncc2)NC(=O)[C@H](Cc2ccc(-c3ncc(C(=O)O)cn3)cc2)NC(=O)[C@H]2C[C@@H](Cc3ccncc3)CN2C(=O)CNC(=O)[C@H](CCN)NC(=O)[C@H](CCC(N)=O)NC(=O)[C@H](CC2CCOCC2)NC(=O)[C@@](C)(CC(=O)O)NC(=O)[C@H](Cc2c[nH]c3ccccc23)NC(=O)[C@H](CO)NC(=O)C(C)(C)NC1=O` [Example 351] (cyclo([Phe(4-(5-CO2H-2-pyrimidyl))][4Pal][Phe(4-COOH)]G[Pro(cis-4-F)][Trp(βS-Me,4-F)][Aib]SW[d(αMeD)][Ala(4-THP)]Q[Dab]G[dPro(4R-(4-pyridylmethyl))])) the figure was 10.80; with `C[C@H](O)[C@@H]1NC(=O)C(C)(C)NC(=O)[C@H]([C@@H](C)c2c[nH]c3cccc(F)c23)NC(=O)[C@@H]2C[C@H](F)CN2C(=O)CNC(=O)[C@H](Cc2ccc(C(=O)O)cc2)NC(=O)[C@H](Cc2ccncc2)NC(=O)[C@H](Cc2ccc(-c3ccc(C(=O)O)cc3)cc2)NC(=O)[C@H]2C[C@@H](Cc3ccncc3)CN2C(=O)CNC(=O)[C@H](CCN)NC(=O)[C@H](CCC(N)=O)NC(=O)[C@H]([C@H](C)O)NC(=O)[C@@](C)(CO)NC(=O)[C@H](Cc2c[nH]c3ccccc23)NC1=O` [Example 352] (cyclo([Bip(4'-COOH)][4Pal][Phe(4-COOH)]G[Pro(cis-4-F)][Trp(βS-Me,4-F)][Aib][aThr]W[d(αMeS)][aThr]Q[Dab]G[dPro(4R-(4-pyridylmethyl))])), 10.64. As for `C[C@H](O)[C@@H]1NC(=O)C(C)(C)NC(=O)[C@H]([C@@H](C)c2c[nH]c3cccc(F)c23)NC(=O)[C@@H]2C[C@H](F)CN2C(=O)CNC(=O)[C@H](Cc2ccc(C(=O)O)cc2)NC(=O)[C@H](Cc2ccncc2)NC(=O)[C@H](Cc2ccc(-c3ccc(C(=O)O)cc3)cc2)NC(=O)[C@H]2C[C@@H](Cc3ccncc3)CN2C(=O)CNC(=O)[C@H](CCN)NC(=O)[C@H](CCC(N)=O)NC(=O)[C@H](CC2CCOCC2)NC(=O)[C@@](C)(CC(=O)O)NC(=O)[C@H](Cc2c[nH]c3ccccc23)NC1=O` [Example 353] (cyclo([Bip(4'-COOH)][4Pal][Phe(4-COOH)]G[Pro(cis-4-F)][Trp(βS-Me,4-F)][Aib][aThr]W[d(αMeD)][Ala(4-THP)]Q[Dab]G[dPro(4R-(4-pyridylmethyl))])), the figure is 10.77; as for `C[C@H](O)[C@@H]1NC(=O)[C@@](C)(CC(=O)O)NC(=O)[C@H](Cc2c[nH]c3ccccc23)NC(=O)[C@H](CO)NC(=O)C(C)(C)NC(=O)[C@H]([C@@H](C)c2cccc3ccccc23)NC(=O)[C@@H]2C[C@H](F)CN2C(=O)CNC(=O)[C@H](Cc2ccc(C(=O)O)cc2Cl)NC(=O)[C@H](Cc2ccncc2)NC(=O)[C@H](Cc2ccc(-c3ccc(C(=O)O)cc3)cc2)NC(=O)[C@H]2C[C@@H](Cc3ccncc3)CN2C(=O)CNC(=O)[C@H](CCN)NC(=O)[C@H](CCC(N)=O)NC1=O` [Example 354] (cyclo([Bip(4'-COOH)][4Pal][Phe(2-Cl,4-COOH)]G[Pro(cis-4-F)][1Nal(3S-Me)][Aib]SW[d(αMeD)][aThr]Q[Dab]G[dPro(4R-(4-pyridylmethyl))])), 10.85; as for `C[C@H](O)[C@@H]1NC(=O)[C@@](C)(CC(=O)O)NC(=O)[C@H](Cc2c[nH]c3ccccc23)NC(=O)[C@H](CO)NC(=O)C(C)(C)NC(=O)[C@H]([C@@H](C)c2c[nH]c3cccc(Cl)c23)NC(=O)[C@@H]2C[C@H](F)CN2C(=O)CNC(=O)[C@H](Cc2ccc(C(=O)O)cc2Cl)NC(=O)[C@H](Cc2ccncc2)NC(=O)[C@H](Cc2ccc(-c3ccc(C(=O)O)cc3)cc2)NC(=O)[C@H]2C[C@@H](Cc3ccncc3)CN2C(=O)CNC(=O)[C@H](CCN)NC(=O)[C@H](CCC(N)=O)NC1=O` [Example 355] (cyclo([Bip(4'-COOH)][4Pal][Phe(2-Cl,4-COOH)]G[Pro(cis-4-F)][Trp(4-Cl)(βS-Me)][Aib]SW[d(αMeD)][aThr]Q[Dab]G[dPro(4R-(4-pyridylmethyl))])), 10.89. As for `C[C@H](O)[C@@H]1NC(=O)[C@@](C)(CC(=O)O)NC(=O)[C@H](Cc2c[nH]c3ccccc23)NC(=O)[C@H](CO)NC(=O)C(C)(C)NC(=O)[C@H]([C@@H](C)c2c[nH]c3cccc(F)c23)NC(=O)[C@@H]2C[C@H](F)CN2C(=O)CNC(=O)[C@H](Cc2ccc(C(=O)O)cc2Cl)NC(=O)[C@H](Cc2ccncc2)NC(=O)[C@H](Cc2ccc(-c3ccc(C(=O)O)cc3)cc2)NC(=O)[C@H]2C[C@@H](Cc3ccncc3)CN2C(=O)CNC(=O)[C@H](CCN)NC(=O)[C@H](CCC(N)=O)NC1=O` [Example 356] (cyclo([Bip(4'-COOH)][4Pal][Phe(2-Cl,4-COOH)]G[Pro(cis-4-F)][Trp(βS-Me,4-F)][Aib]SW[d(αMeD)][aThr]Q[Dab]G[dPro(4R-(4-pyridylmethyl))])), the figure is 10.96; as for `C[C@H](O)[C@@H]1NC(=O)[C@@](C)(CC(=O)O)NC(=O)[C@H](Cc2c[nH]c3ccccc23)NC(=O)[C@H](CO)NC(=O)C(C)(C)NC(=O)[C@H]([C@@H](C)c2cccc3ccccc23)NC(=O)[C@@H]2C[C@H](F)CN2C(=O)CNC(=O)[C@H](Cc2ccc(C(=O)O)cc2)NC(=O)[C@H](Cc2ccncc2)NC(=O)[C@H](Cc2ccc(-c3ccc(C(=O)O)cc3)cc2)NC(=O)[C@H]2C[C@@H](Cc3ccncc3)CN2C(=O)CNC(=O)[C@H](CCN)NC(=O)[C@H](CCC(N)=O)NC1=O` [Example 357] (cyclo([Bip(4'-COOH)][4Pal][Phe(4-COOH)]G[Pro(cis-4-F)][1Nal(3S-Me)][Aib]SW[d(αMeD)][aThr]Q[Dab]G[dPro(4R-(4-pyridylmethyl))])), 10.77.

As usually defined, the pIC50 is −log10 of the IC50, conventionally taken in molar units.
